Source: US6864086B2, “Nitric oxide-scavenging system for culturing oocytes, embryos, or other cells” (Board of Supervisors of Louisiana State University and …, priority 1998, dated 2005)
Marks after values point to notes of the source that are not given here.

Tested on: inseminated bovine oocytes co-cultured with cumulus-granulosa cells
Assay: Example 5: Hb (1 μg/ml) added to mBECM-C at different times of co-culture with CGs
Type: cell-based
Settings: for No of embryos developed to the 2-cell / % of embryos developed to the 2-cell: examined 48 h; for No of embryos developed to the 8-cell / % of embryos developed to the 8-cell: examined 60 h; for No of embryos developed to the 16-cell / % of embryos developed to the 16-cell: examined 120 h; for No of embryos developed to the Morula / % of embryos developed to the Morula: examined 144 h; for No of embryos developed to the Blastocyst / % of embryos developed to the Blastocyst: examined 192 h
Description: mBECM containing 10 μM β-mercaptoethanol was used to culture embryos, as described in J. Lim et al., “Roles of growth factors in the development of bovine embryos fertilized in vitro and cultured singly in a defined medium,” Reprod. Fertil. Dev., 8, 1199-1205 (1996). To culture individual 8-cell embryos we used mBECM supplemented with 1 ng/ml platelet derived growth factor type AB (PDGF; Upstate Biotechnology Inc., Lake Placid, N.Y.), 1 ng/ml transforming growth factor-β (TGF; R & D System, Minneapolis, Minn.), 50 ng/ml arachidonic acid (AA; Cayman Chemical Co., Ann Arbor, Mich.), 100 μM glutathione (GSH; Sigma Co.) and 1 mg/ml polyvinyl alcohol (PVA) (mBECM-S). mBECM to which 10% (v/v) FBS was added (mBECM-C) was used for co-culturing inseminated zygotes with CGs and for producing 8-cell embryos. Osmolarity of the medium was maintained within the range of 265-290 mOsm.
The bovine cumulus-oocyte complexes (COCs) used were collected in Madison, Wis. (BOMED, Inc.), and were shipped in 2-ml of maturation medium in a battery powered incubator via overnight express mail service. Oocytes matured during transit and arrived within 24 h after exposure to maturation medium, pre-equilibrated at 39° C. in 5% CO2 in air. At 22-24 h after exposure to the medium, the COCs were inseminated in vitro as described in J. Lim et al., “Intracytoplasmic glutathione concentration and the role of β-mercaptoethanol in preimplantation development of bovine embryos,” Theriogenology, 46, 429-439 (1996). At 18 h post-insemination, COCs were cultured in groups (30-35 embryos) in a 4-well multidish (Nunc, Roskilde, Denmark) containing 0.8-ml of mBECM-C. Embryos were dislodged from CGs at 36-48 h post-insemination.
In Example 1, embryos (83-85 per group) collected 18 h post-insemination were cultured in mBECM-C, to which 0, 0.008, or 0.04 mM SNP was added at 18 or 60 h post-insemination. In Example 2, 8-cell embryos (80 per group) were produced in a co-culture system containing CGs and mBECM-C, and then beginning at 60 h post-insemination were cultured singly in a defined culture medium (mBECM-S), to which 0, 0.0016, 0.008, or 0.04 mM of SNP (S-0501, Sigma Co.) was added. In Example 3 embryos, either uncleaved (n=99) or developed to the 2-cell stage (90), were collected 48 h post-insemination; and cleaved embryos, either developed to the morula stage (69) or degenerate (63) were collected 144 h post-insemination. NO metabolites were then measured in the embryos. In Example 4, three groups of 95 zygotes each were co-cultured with CGs in mBECM-C, to which 0, 1, or 10 μg/ml Hb (bovine, mainly methemoglobin, H-2500, Sigma Co.) was added. […] In Example 6, inseminated oocytes (93 per group) were cultured in the presence or absence of CGs in mBECM-C to which either 0 or 1 μg/ml Hb was added. In Example 7, 8-cell embryos (100 per group), obtained after culture in mBECM-C supplemented with Hb (1 μg/ml), were cultured singly in mBECM-S, with or without Hb.
Oocytes or 8-cell embryos were randomly and equally allocated to each treatment group. In Examples 1, 2, and 4-7, oocytes or embryos that had developed to the 2-cell, 8-cell, >8-cell, 16-cell morula, and blastocyst stages were individually scored ‘1’ (developed) at 48, 60, 96, 120, 144 and 192 h post-insemination, respectively. […] Sums of the scores in each stage of development were evaluated by analysis of variance (ANOVA) using the general linear model (PROC-GLM) in the SAS program software. In Example 3, concentrations of NO metabolites in embryos were subjected to ANOVA. […] Differences were regarded as statistically significant where P values were less than 0.05.

[1] = Hb 1 μg/ml added 18 h post-insemination (1-cell)
[2] = Hb 1 μg/ml added 18 h post-insemination (1-cell), 104 oocytes
[3] = Hb 1 μg/ml added 60 h post-insemination (8-cell)
[4] = Hb 1 μg/ml added 60 h post-insemination (8-cell), 104 oocytes
[5] = Hb 1 μg/ml added 144 h post-insemination (Morula)
[6] = Hb 1 μg/ml added 144 h post-insemination (Morula), 103 oocytes

What does the source list for hemoglobin [Hb]?
Ratio of blastocysts to morulae [1]: 0.74; No of embryos developed to the 2-cell [2]: 76; No of embryos developed to the 8-cell [2]: 52; No of embryos developed to the 16-cell [2]: 45; No of embryos developed to the Morula [2]: 34; No of embryos developed to the Blastocyst [2]: 25; % of embryos developed to the 2-cell [1]: 73%; % of embryos developed to the 8-cell [1]: 50%; % of embryos developed to the 16-cell [1]: 43%; % of embryos developed to the Morula [1]: 33%; % of embryos developed to the Blastocyst [1]: 24%; Ratio of blastocysts to morulae [3]: 1.00; No of embryos developed to the 2-cell [4]: 67; No of embryos developed to the 8-cell [4]: 40; No of embryos developed to the 16-cell [4]: 35; No of embryos developed to the Morula [4]: 30; No of embryos developed to the Blastocyst [4]: 30; % of embryos developed to the 2-cell [3]: 64%; % of embryos developed to the 8-cell [3]: 38%; % of embryos developed to the 16-cell [3]: 34%; % of embryos developed to the Morula [3]: 29%; % of embryos developed to the Blastocyst [3]: 29%; Ratio of blastocysts to morulae [5]: 0.96; No of embryos developed to the 2-cell [6]: 64; No of embryos developed to the 8-cell [6]: 34; No of embryos developed to the 16-cell [6]: 28; No of embryos developed to the Morula [6]: 23; No of embryos developed to the Blastocyst [6]: 22 (22)^c,d; % of embryos developed to the 2-cell [5]: 62%; % of embryos developed to the 8-cell [5]: 33%; % of embryos developed to the 16-cell [5]: 27%; % of embryos developed to the Morula [5]: 22%; % of embryos developed to the Blastocyst [5]: 22 (22)^c,d %; proportion of blastocysts (Hb 1 μg/ml added at 18 or 60 h post-insemination, controls 13%): 24-29%
